Assay results from US9221761B2, “Method for inhibition of deubiquitinating activity” (Vivolux AB, priority 2011, dated 2015).

What was measured:
HCT-116 cells = experiment: Cell cycle arrest and DNA damage markers; type: cell-based
[1] = system: HCT116 colon cancer cells; experiment: Apoptosis in isogenic clones of HCT116 colon cancer cells; type: cell-based
Description: The increase in sub G1 DNA, caspase-3 activation and cleavage of poly-ADP ribose polymerase (PARP) and cytokeratin is associated with an overall decrease in cell viability at drug concentrations that induce the accumulation of polyubiquitin connecting UPS inhibition and apoptosis. Apoptosis induction by bortezomib is sensitive to the status of the p53 tumor suppressor and over-expression of the anti-apoptotic Bcl-2 oncoprotein (11, 12). […] Cell culture. MCF7 cells are maintained in MEM/10% fetal calf serum. HCT-116 p53+/+, p53−/−, Bcl-2+/+, PUMA−/− and BAX−/− cells are maintained in McCoy's 5A modified medium/10% fetal calf serum. The HCT-116 p53+/+, p53−/−, PUMA−/− and BAX−/− are generated as described (25). The HCT-116 Bcl-2+/+ cell line was generated by transfecting parental HCT-116 p53+/+ cells with pCEP4 Bcl-2 (Addgene plasmid 16461) (26) and isolating high expression clones. FaDu and LLC3 cells are maintained in DMEM high glucose medium supplemented with 10% fetal calf serum, Na pyruvate, Hepes and non-essential amino acids. 4T1.12B carcinoma cells are maintained in RPMI medium supplemented with 10% fetal calf serum. The proteasome reporter cell line MelJuSo Ub-YFP was generated as described (12). […] Cell viability is determined by measuring acid phosphatase activity or using the FMCA method (32). […] Absorbance is measured at 405 nm. […]

19S RP = biological target: T1, 19S RP (Homo sapiens, UniProt P54578+Q9Y5K5); experiment: Ubiquitin-cleavage assay (Ub-GFP, ubiquitinated Hdm2); type: biochemical; conditions: 19S RP 25 nM, 50 μM compound, 10 min
T1 construct: purchased Boston Biochem E-366
Experimental: Recombinant ubiquitin-GFP is a substrate for 19S RP DUB activity (15). […] The type of ubiquitin bonds present in the polyubiquitin chain determines the fate of an ubiquitin-modified substrate.
Ubiquitin-cleavage assay. The recombinant Ub-GFP plasmid pet19b Ub-M-GFP is generated as described (30). In brief recombinant Ub-GFP is purified from BL21 E. coli cells by His affinity purification. For cleavage assays 19S RP (25 nM) is incubated with 10 mM NEM, 250 μM TPEN or 50 μM of the compound of the invention for 10 min followed by the addition of recombinant Ub-GFP (200 nM). Ubiquitin chain disassembly reactions are performed essentially as above except K48- or K63-linked ubiquitin tetramers (50 ng) are substituted for Ub-GFP. The level of Ub-GFP cleavage or ubiquitin disassembly is determined by immunoblotting with anti ubiquitin antibodies. The ubiquitinated Hdm2 substrate is generated according to the Boston Biochem protocol (K-200). For the cleavage assay 19S RP (25 nM) is incubated with 50 μM of the compound of the invention or DMSO for 10 min followed by the addition of ubiquitinated Hdm2 substrate (100 nM). The cleavage of ubiquitinated Hdm2 substrate and ubiquitinated Hdm2 is determined by immunoblotting with anti-Hdm2 antibodies.

C=CC(=O)N1C/C(=C\c2ccc([N+](=O)[O-])cc2)C(=O)/C(=C/c2ccc([N+](=O)[O-])cc2)C1 [b-AP15] was tested, and the “genotoxicity (DNA damage markers phosphorylated p53 Ser 15, H2AX Ser 139)” value (HCT-116 cells) was “not a genotoxic agent”, the “sensitivity of induced apoptosis to over-expression of Bcl-2 and disruption of p52, BAX or PUMA” value [1] was “insensitive” and the “cleavage of Ub-GFP and ubiquitinated HDM2 by 19S RP” value (19S RP) was “efficiently inhibited”.
